According to patent US20070155764A1, “NOVEL SUBSTITUTED PYRIMIDINYLOXY UREAS USEFUL AS INHIBITORS OF PROTEIN KINASES” (KALYPSYS, INC., priority 2005, published 2007):

Key:
Format in all cases: biochemical
VEGFR2 kinase = molecular target: T1, VEGFR2 kinase (Homo sapiens, UniProt P35968); experiment: In vitro VEGFR2 kinase assay; conditions: ADP Quest assay, poly Glu:Tyr substrate, 60 μM ATP
T1 construct: purchased Invitrogen Inc PV3660
Procedure: (§1) In vitro vegfr2 and PDGFRβ Kinase Assays
(§2) 2.5 μl of ADP Quest assay buffer (DiscoverX Inc., cat. #90-0071) containing 20 ng VEGFR2 kinase (Invitrogen Inc, cat. #PV3660) or 25 ng PDGFRβ kinase (Invitrogen Inc., cat. #P3082) is dispensed to wells of a 1536 multi-well, black solid plate. 60 nl of 100× concentration of test compound in DMSO is dispensed to the well by passive pin transfer and incubated for 10 minutes at room temperature (approx. 22° C.). 2.5 μl of ADP Quest assay buffer containing 0.25 μg of poly Glu:Tyr (4:1) substrate peptide (Upstate Inc., cat. #12-440) and 60 μM ATP is then dispensed and the kinase reaction allowed to incubate at 30° C. for 2 hours. The assay plates are sealed and maintained in a humidified environment. After the 2 hour incubation, 2 μl of ADP Quest assay reagent A, followed by 2 μl of assay reagent B, is added. After an additional 30 minute incubation at room temperature, fluorescence intensity is measured on a Molecular Devices Aquest multi-mode plate reader or other suitable plate reader (fluorescence excitation filter: 530/25 [Peak (nm)/FWHM passband (nm)]; dichroic beamsplitter: 561 nm longpass; fluorescence emission filter: 580/10 [Peak (nm)/FWHM passband (nm)]. The assay measures the conversion of a non-fluoresecent molecule to fluorescent resorutin, which correlates with kinase activity. Negative control activity is measured with DMSO lacking any test compound. The positive control is [N-(3-trifluoromethyl-4-chlorophenyl)-N′-(4-(2-methylcarbamoyl-pyridin-4-yl)oxyphenyl)urea], aka Bay 43-9006. Efficacy is measured as a percentage of positive control activity.

PDGFRβ kinase = molecular target: T2, PDGFRβ kinase (Homo sapiens, UniProt P09619); experiment: In vitro PDGFRβ kinase assay; conditions: ADP Quest assay, poly Glu:Tyr substrate, 60 μM ATP
T2 construct: purchased Invitrogen Inc. P3082
T2 sequence (P09619 33-1106): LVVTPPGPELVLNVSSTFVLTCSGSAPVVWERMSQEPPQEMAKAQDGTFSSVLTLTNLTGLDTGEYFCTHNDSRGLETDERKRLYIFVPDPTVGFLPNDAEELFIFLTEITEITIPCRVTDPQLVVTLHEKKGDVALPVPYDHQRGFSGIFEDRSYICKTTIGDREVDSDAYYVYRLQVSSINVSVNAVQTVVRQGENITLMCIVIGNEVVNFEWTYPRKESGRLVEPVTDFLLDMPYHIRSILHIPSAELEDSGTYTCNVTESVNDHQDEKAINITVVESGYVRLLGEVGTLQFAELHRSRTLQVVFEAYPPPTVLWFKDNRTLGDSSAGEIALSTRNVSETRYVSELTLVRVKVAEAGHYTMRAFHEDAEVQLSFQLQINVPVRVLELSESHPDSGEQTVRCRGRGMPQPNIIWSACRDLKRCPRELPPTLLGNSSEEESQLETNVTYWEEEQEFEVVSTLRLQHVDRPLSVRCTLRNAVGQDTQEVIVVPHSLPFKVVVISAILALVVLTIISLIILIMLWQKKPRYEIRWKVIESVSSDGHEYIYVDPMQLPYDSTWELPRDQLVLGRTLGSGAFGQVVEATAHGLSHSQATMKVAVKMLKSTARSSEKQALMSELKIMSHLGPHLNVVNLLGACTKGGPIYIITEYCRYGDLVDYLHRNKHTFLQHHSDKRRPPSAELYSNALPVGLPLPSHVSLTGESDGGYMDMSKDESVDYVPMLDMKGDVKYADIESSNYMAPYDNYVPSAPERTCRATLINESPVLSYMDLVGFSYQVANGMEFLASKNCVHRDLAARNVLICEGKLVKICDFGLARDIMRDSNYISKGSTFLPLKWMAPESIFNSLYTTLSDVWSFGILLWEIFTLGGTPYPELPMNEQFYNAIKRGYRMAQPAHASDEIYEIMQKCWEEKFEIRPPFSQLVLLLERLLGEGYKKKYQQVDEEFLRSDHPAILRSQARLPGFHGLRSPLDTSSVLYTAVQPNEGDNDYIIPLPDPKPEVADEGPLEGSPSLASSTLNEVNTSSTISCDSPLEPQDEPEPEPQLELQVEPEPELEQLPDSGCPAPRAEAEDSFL
Procedure: as §1, §2

[1] = molecular target: T3, human B-Raf protein kinase (Homo sapiens, UniProt P15056); experiment: In vitro B-Raf/Mek1 composite kinase assay; conditions: recombinant GST-tagged human B-Raf (Δ1-415) with inactive Mek1, 2 μM ATP
T3 construct: GST (N); purchased Upstate Inc. 14-530 (B-Raf); 14-420 (Mek1)
T3 sequence (P15056 416-766): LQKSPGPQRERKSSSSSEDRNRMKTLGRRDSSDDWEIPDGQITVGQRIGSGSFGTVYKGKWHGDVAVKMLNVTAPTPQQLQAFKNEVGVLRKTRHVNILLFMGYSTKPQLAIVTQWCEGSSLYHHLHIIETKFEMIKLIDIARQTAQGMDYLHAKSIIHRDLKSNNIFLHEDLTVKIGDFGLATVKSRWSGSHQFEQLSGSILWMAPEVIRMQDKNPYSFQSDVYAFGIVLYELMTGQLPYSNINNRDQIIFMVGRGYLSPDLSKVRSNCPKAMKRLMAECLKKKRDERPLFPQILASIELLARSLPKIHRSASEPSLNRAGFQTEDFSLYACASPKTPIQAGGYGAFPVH
Procedure: In Vitro B-Raf/Mek1 Composite Kinase Assay
2.5 μl of B-Raf kinase buffer (20 mM MOPS [pH 7.2], 25 mM sodium glycerophosphate, 2 mM EGTA [pH 8.0], 1 mM sodium orthovanadate, 1 mM dithiothreitol, 10 mM MgCl2, 0.03% Brij-35, 0.3 mg/ml bovine serum albumin) containing 1 ng of recombinant, N-terminal GST-tagged human B-Raf protein kinase (Δ1-415, Upstate Inc., cat. #14-530) is dispensed to wells of a 1536 multi-well white solid plate. 60 nl of 100× concentration of test compound in DMSO is dispensed to the well by passive pin transfer and incubated for 15 minutes at room temperature (approx. 22° C.). […] The assay plates are sealed and maintained in a humidified environment. After 2 hours, 2.5 μl of PKLight protein kinase assay reagent (Cambrex, cat. #LT07-501) is dispensed. After an additional 5 minute incubation at room temperature, luminescence activity is measured on a Molecular Devices Analyst multi-mode plate reader or other suitable plate reader. Kinase inhibition results in less ATP depletion, and therefore increased luminescence signal. Negative control activity is measured with DMSO lacking any test compound. The positive control is [N-(3-trifluoromethyl-4-chlorophenyl)-N′-(4-(2-methylcarbamoyl-pyridin-4-yl)oxyphenyl)urea], aka Bay 43-9006. Efficacy is measured as a percentage of positive control activity.

T1 sequence (P35968 20-1356): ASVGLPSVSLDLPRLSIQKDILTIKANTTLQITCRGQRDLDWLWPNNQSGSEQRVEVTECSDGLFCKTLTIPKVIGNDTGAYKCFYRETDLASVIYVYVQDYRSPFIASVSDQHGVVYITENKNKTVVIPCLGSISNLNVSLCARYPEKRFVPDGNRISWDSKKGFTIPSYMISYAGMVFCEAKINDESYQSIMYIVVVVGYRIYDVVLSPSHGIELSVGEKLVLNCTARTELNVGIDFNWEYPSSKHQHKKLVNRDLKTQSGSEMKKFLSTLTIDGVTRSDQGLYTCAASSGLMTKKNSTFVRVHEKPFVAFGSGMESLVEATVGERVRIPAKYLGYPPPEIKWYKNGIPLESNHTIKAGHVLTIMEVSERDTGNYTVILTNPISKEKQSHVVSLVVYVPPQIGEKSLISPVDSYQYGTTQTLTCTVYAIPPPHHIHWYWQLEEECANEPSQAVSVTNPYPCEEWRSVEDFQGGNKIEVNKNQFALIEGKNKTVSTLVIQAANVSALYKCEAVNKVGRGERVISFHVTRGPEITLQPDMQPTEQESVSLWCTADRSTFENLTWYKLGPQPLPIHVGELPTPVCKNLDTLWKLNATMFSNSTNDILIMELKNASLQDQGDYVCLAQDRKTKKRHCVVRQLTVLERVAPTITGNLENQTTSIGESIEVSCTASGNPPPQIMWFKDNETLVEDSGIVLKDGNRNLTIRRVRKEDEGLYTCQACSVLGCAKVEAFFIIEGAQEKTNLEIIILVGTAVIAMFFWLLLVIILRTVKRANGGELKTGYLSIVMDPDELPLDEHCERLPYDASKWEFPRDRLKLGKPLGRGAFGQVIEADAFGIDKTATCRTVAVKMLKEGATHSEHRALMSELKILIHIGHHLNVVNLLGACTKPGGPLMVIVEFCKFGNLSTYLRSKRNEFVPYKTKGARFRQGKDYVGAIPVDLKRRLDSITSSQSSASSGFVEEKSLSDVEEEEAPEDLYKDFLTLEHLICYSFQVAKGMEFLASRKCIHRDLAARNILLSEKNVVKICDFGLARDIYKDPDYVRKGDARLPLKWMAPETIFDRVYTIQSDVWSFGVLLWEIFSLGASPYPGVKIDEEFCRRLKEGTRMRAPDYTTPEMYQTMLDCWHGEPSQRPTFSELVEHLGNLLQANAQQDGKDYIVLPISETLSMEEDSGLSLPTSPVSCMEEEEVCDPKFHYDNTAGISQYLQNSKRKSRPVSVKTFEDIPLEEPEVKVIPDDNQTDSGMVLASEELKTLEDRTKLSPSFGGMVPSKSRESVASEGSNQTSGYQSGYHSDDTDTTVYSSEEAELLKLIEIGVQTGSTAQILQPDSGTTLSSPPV

IC50 (VEGFR2 kinase) [µM] | IC50 (PDGFRβ kinase) [µM] | IC50 [1] [µM] | Structure (SMILES)
≤ 10 | ≤ 10 | ≤ 10 | CCOC(=O)c1coc(-c2cc(Oc3cccc(NC(=O)Nc4ccc(Cl)c(C(F)(F)F)c4)c3)ncn2)n1 [Example 81, Ethyl 2-(6-(3-(3-(4-chloro-3-(trifluoromethyl)phenyl)ureido)phenoxy)pyrimidin-4-yl)oxazole-4-carboxylate]
≤ 10 | ≤ 10 | ≤ 10 | O=C(Nc1cccc(Oc2cc(-c3ccno3)ncn2)c1)Nc1ccc(Cl)c(C(F)(F)F)c1 [Example 42, 1-(4-chloro-3-(trifluoromethyl)phenyl)-3-(3-(6-(isoxazol-5-yl)pyrimidin-4-yloxy)phenyl)urea]
> 10 | ≤ 10 | ≤ 10 | CC(C)n1cc(-c2cc(Oc3cccc(NC(=O)Nc4ccc(Cl)c(C(F)(F)F)c4)c3)ncn2)cn1 [Example 68, 1-(4-Chloro-3-(trifluoromethyl)phenyl)-3-(3-(6-(1-isopropyl-1H-pyrazol-4-yl)pyrimidin-4-yloxy)phenyl)urea]
≤ 10 | ≤ 10 | ≤ 10 | COC(=O)Cn1ccc(-c2cc(Oc3cccc(NC(=O)Nc4ccc(Cl)c(C(F)(F)F)c4)c3)ncn2)n1 [Example 58, Methyl 2-(3-(6-(3-(3-(4-chloro-3-(trifluoromethyl)phenyl)ureido)phenoxy)pyrimidin-4-yl)-1H-pyrazol-1-yl)acetate]
≤ 10 | ≤ 10 | ≤ 10 | Cn1cc(-c2cc(Oc3cccc(NC(=O)Nc4ccc(C(F)(F)F)cc4F)c3)ncn2)cn1 [Example 91, 1-(2-Fluoro-4-(trifluoromethyl)phenyl)-3-(3-(6-(1-methyl-1H-pyrazol-4-yl)pyrimidin-4-yloxy)phenyl)urea]
> 10 | > 10 | ≤ 10 | CN(C(=O)Nc1cccc(Oc2ccnc(-c3nnco3)c2)c1)c1ccc(Cl)c(C(F)(F)F)c1 [Example 109, 3-(3-(2-(1,3,4-Oxadiazol-2-yl)pyridin-4-yloxy)phenyl)-1-(4-chloro-3-(trifluoromethyl)phenyl)-1-methylurea]
> 10 | > 10 | ≤ 10 | Cn1ccc(-c2cc(Oc3cccc(NC(=O)Nc4ccc(Cl)c(C(F)(F)F)c4)c3)ncn2)n1 [Example 61, 1-(4-Chloro-3-(trifluoromethyl)phenyl)-3-(3-(6-(1-methyl-1H-pyrazol-3-yl)pyrimidin-4-yloxy)phenyl)urea]
≤ 10 | ≤ 10 | ≤ 10 | Cn1cc(-c2cc(Oc3ccc(NC(=O)Nc4ccc(Cl)c(C(F)(F)F)c4)c(F)c3)ncn2)cn1 [Example 92, 1-(4-Chloro-3-(trifluoromethyl)phenyl)-3-(2-fluoro-4-(6-(1-methyl-1H-pyrazol-4-yl)pyrimidin-4-yloxy)phenyl)urea]
≤ 10 | ≤ 10 | ≤ 10 | O=C(Nc1cccc(Oc2cc(-c3ncco3)ncn2)c1)Nc1ccc(Cl)c(C(F)(F)F)c1 [Example 14, 1-(4-chloro-3-(trifluoromethyl)phenyl)-3-(3-(6-(oxazol-2-yl)pyrimidin-4-yloxy)phenyl)urea]
> 10 | > 10 | ≤ 10 | O=C(Nc1cccc(Oc2cc(-c3ccn(CCO)n3)ncn2)c1)Nc1ccc(Cl)c(C(F)(F)F)c1 [Example 63, 1-(4-Chloro-3-(trifluoromethyl)phenyl)-3-(3-(6-(1-(2-hydroxyethyl)-1H-pyrazol-3-yl)pyrimidin-4-yloxy)phenyl)urea]
≤ 10 | ≤ 10 | ≤ 10 | O=C(Nc1cccc(Oc2ccnc(-c3nnco3)n2)c1)Nc1ccc(Cl)c(C(F)(F)F)c1 [Example 12, 1-(3-(2-(1,3,4-oxadiazol-2-yl)pyrimidin-4-yloxy)phenyl)-3-(4-chloro-3-(trifluoromethyl)phenyl)urea]
≤ 10 | ≤ 10 | ≤ 10 | Cn1cc(-c2nccc(Oc3ccc(NC(=O)Nc4ccc(C(F)(F)F)cc4)cc3)n2)cn1 [Example 102, 1-(4-(2-(1-Methyl-1H-pyrazol-4-yl)pyrimidin-4-yloxy)phenyl)-3-(4-(trifluoromethyl)phenyl)urea]
≤ 10 | ≤ 10 | ≤ 10 | CN1CCN(Cc2cc(NC(=O)Nc3cccc(Oc4cc(-c5nnco5)ncn4)c3)cc(C(F)(F)F)c2)CC1 [Example 24, 1-(3-(6-(1,3,4-Oxadiazol-2-yl)pyrimidin-4-yloxy)phenyl)-3-(3-((4-methylpiperazin-1-yl)methyl)-5-(trifluoromethyl)phenyl)urea]
≤ 10 | ≤ 10 | ≤ 10 | O=C(Nc1cccc(Oc2cc(-c3nnco3)ncn2)c1)Nc1cc(C(F)(F)F)c(Cl)cc1OCCN1CCCC1 [Example 26, 1-(3-(6-(1,3,4-Oxadiazol-2-yl)pyrimidin-4-yloxy)phenyl)-3-(4-chloro-2-(2-(pyrrolidin-1-yl)ethoxy)-5-(trifluoromethyl)phenyl)urea]
≤ 10 | ≤ 10 | ≤ 10 | CNC(=O)c1cc(Oc2ccc(N(C)C(=O)Nc3cc(-n4cnc(C)c4)cc(C(F)(F)F)c3)cc2)ccn1 [Example 118, 4-(4-{1-Methyl-3-[3-(4-methyl-imidazol-1-yl)-5-trifluoromethyl-phenyl]-ureido}-phenoxy)-pyridine-2-carboxylic acid methylamide]
≤ 10 | ≤ 10 | ≤ 10 | O=C(Nc1ccc(Oc2cc(-c3ncco3)ncn2)cc1)Nc1ccc(Cl)c(C(F)(F)F)c1 [Example 13, 1-(4-Chloro-3-(trifluoromethyl)phenyl)-3-(4-(6-(oxazol-2-yl)pyrimidin-4-yloxy)phenyl)urea]
≤ 10 | ≤ 10 | > 10 | O=C(Nc1ccc(Oc2cc(-c3ncon3)ncn2)cc1)Nc1ccc(Cl)c(C(F)(F)F)c1 [Example 3, 1-(4-Chloro-3-trifluoromethyl-phenyl)-3-[4-(6-[1,2,4]oxadiazol-3-yl-pyrimidin-4-yloxy)-phenyl]-urea]
≤ 10 | ≤ 10 | ≤ 10 | O=C(Nc1cccc(Oc2cc(-c3ccc[nH]3)ncn2)c1)Nc1ccc(Cl)c(C(F)(F)F)c1 [Example 27, 1-(3-(6-(1H-Pyrrol-2-yl)pyrimidin-4-yloxy)phenyl)-3-(4-chloro-3-(trifluoromethyl)phenyl)urea]
≤ 10 | ≤ 10 | ≤ 10 | Cn1cc(-c2nccc(Nc3ccc(NC(=O)Nc4ccc(Cl)c(C(F)(F)F)c4)cc3)n2)cn1 [Example 72, 1-(4-Chloro-3-trifluoromethyl-phenyl)-3-{4-[2-(1-methyl-1H-pyrazol-4-yl)-pyrimidin-4-ylamino]-phenyl}-urea]
≤ 10 | ≤ 10 | ≤ 10 | COc1ccc(C(F)(F)F)cc1NC(=O)Nc1cccc(Oc2cc(-c3cnn(C)c3)ncn2)c1 [Example 94, 1-(2-Methoxy-5-(trifluoromethyl)phenyl)-3-(3-(6-(1-methyl-1H-pyrazol-4-yl)pyrimidin-4-yloxy)phenyl)urea]
≤ 10 | – | ≤ 10 | NC(=O)Cn1cc(-c2cc(Oc3cccc(NC(=O)Nc4ccc(Cl)c(C(F)(F)F)c4)c3)ncn2)cn1 [Example 55, 2-(4-(6-(3-(3-(4-Chloro-3-(trifluoromethyl)phenyl)ureido)phenoxy)pyrimidin-4-yl)-1H-pyrazol-1-yl)acetamide]
– | – | > 10 | O=C(Nc1ccc(Oc2ccnc(-c3ncon3)n2)cc1)Nc1ccc(Cl)c(C(F)(F)F)c1 [Example 7, 1-(4-(2-(1,2,4-Oxadiazol-3-yl)pyrimidin-4-yloxy)phenyl)-3-(4-chloro-3-(trifluoromethyl)phenyl)urea]
